Where two headings read alike, the source gives them in different places.
Tests used:
[1] = system: Anxiety in the Adult Male Rat; experiment: Suppression of Anxiety in the Adult Male Rat (rat conflict test); assay type: in vivo, rats; conditions: for minimal effective dose: Rattus norvegicus
Procedure: Assay to Measure the Suppression of Anxiety in the Adult Male Rat
Male rats were deprived of water for 48 hours and were deprived of food for 24 hours prior to testing. After the first 24 hours of water deprivation, they were placed in the conflict chamber for a training period; wherein, they were allowed 200 unpunished licks from a bottle containing tap water. The experiment was run the next day. At the expected time of peak activity, the animals were placed in the chamber and allowed access to tap water. […] Their first lick initiates a 3-min test session. Subsequently, every 20th lick was punished by a 0.2-s shock delivered via the stainless-steel drinking-tube.
The Wilcoxon rank-sum test (Mann-Whitney U-test) was used to test for an increase (p<0.05, 1-tailed) in the median number of shocks in drug-treated groups, compared to a concurrently run vehicle-treated group. The biological assay is considered to be valid if the effects of a known anxiolytic (positive control) are detected, within the same experiment.

[2] = system: metrazol-induced convulsions; experiment: Suppression of Metrazol-Induced Convulsions in Adult Male Mice; assay type: in vivo; conditions: for ED50: Mus musculus, po
[3] = biological target: benzodiazepine site of the GABA-A receptor; experiment: Benzodiazepine Receptor Binding Assay (inhibition of 3H-flunitrazepam binding); conditions: read-out: GABAA Receptor Binding IC50
[4] = system: metrazol-induced convulsions; experiment: Suppression of Metrazol-Induced Convulsions in Adult Male Mice; assay type: in vivo; conditions: for ED50: Mus musculus, ip
Procedure: Assay to Determine the Suppression of Metrazol-Induced Convulsions in Adult Male Mice
Male CD1 mice, were fasted at least 16 hours, were divided into equal groups and test compounds or vehicle were administered parenterally. Water was not withheld except during the period of observations. […] Metrazol was dissolved in 0.9% sodium chloride solution, and its dose volume was 10 ml/kg. Animals were housed individually for observation of clonic convulsions, tonic convulsions and death for a period of 30 min. […] The biological assay was considered to be valid if the effects of a known anticonvulsant (positive control) were detected, within the same experiment. Activity was reported as percent reduction of clonic convulsions from the vehicle group.

[5] = ip, rat, ip, read-out: Rat Conflict (MED, mg/kg) ip
[6] = po, rat, po, read-out: Rat Conflict (MED, mg/kg) po
[7] = po, minimum effective dose, increase in shocks tolerated, >10 = active dose not determined, read-out: Rat Conflict (MED, mg/kg) po
[8] = inhibition of 3H-flunitrazepam (ca. 3 nM) binding to membranes, 25°C, over 10,000 = not active
[9] = block of clonic convulsions, male CD1 mice, >30 = active dose not determined

SMILES	IC50 [3] [nM]	ED50 ([2]; mouse) [mg/kg]	ED50 ([4]; mouse) [mg/kg]	minimal effective dose [1, 6] [mg/kg]	also measured
CN(C)CCN1C2=C(C(=O)Nc3ccncc3)C(=O)CCN2c2ccccc21 [Compound 72]	3840	> 30	> 10		minimal effective dose [1, 5]: > 10 mg/kg
COCCN1C2=C(C(=O)Nc3ccccc3F)C(=O)CCN2c2cccc(OC)c21 [Compound 96]	1.8			> 10	
COCCN1C2=C(C(=O)Nc3ccc(Cl)s3)C(=O)CCN2c2ccccc21 [Compound 146]	2.09	> 30	< 1	> 10	
O=C(CN1C2=C(C(=O)Nc3ccccc3F)C(=O)CCN2c2ccc(F)cc21)NCCc1c[nH]cn1 [Compound 32]					minimal effective dose [1, 7]: > 3 mg/kg; IC50 [3, 8]: 3.56 nM
COCCN1C2=C(C(=O)NC3CCCCC3)C(=O)CCN2c2ccc(F)cc21 [Compound 110]	19.1	≥ 30	≥ 1	10	
COCCN1C2=C(C(=O)Nc3ccccc3F)C(=O)CCN2c2c(O)cccc21 [Compound 108]	10.4	≥ 30	> 1	> 10	
COc1cccc2c1N(CCN(C)C)C1=C(C(=O)Nc3nccs3)C(=O)CCN12 [Compound 34]					minimal effective dose [1, 7]: > 3 mg/kg; IC50 [3, 8]: 1000 nM
COCCN1C2=C(C(=O)Nc3nccs3)C(=O)CCN2c2ccc(F)cc21 [Compound 155]	6.13				Rat Conflict (MED, mg/kg) po ([1]; rat, po): 3 mg/kg; Mouse Metrazol (ED50, mg/kg) po ([2]; mouse): ca. 1.5 mg/kg; Mouse Metrazol (ED50, mg/kg) ip ([4]; mouse): <1 mg/kg
O=C(Nc1c(F)cccc1F)OCCN1C2=C(C(=O)Nc3c(F)cccc3F)C(=O)CCN2c2ccc(F)cc21 [Compound 179]	7.65	> 30	10		minimal effective dose [1, 5]: > 10 mg/kg
O=C1CCN2C(=C1C(=O)Nc1ccccc1F)N(CCNS(=O)(=O)c1ccccc1)c1cc(F)ccc12 [Compound 44]					minimal effective dose ([1]; ip, minimum effective dose, increase in shocks tolerated, >10 = active dose not determined, read-out: Rat Conflict (MED, mg/kg) ip): > 10 mg/kg; minimal effective dose [1, 7]: > 10 mg/kg; ED50 [2, 9]: < 30 mg/kg; IC50 [3, 8]: 10.1 nM; ED50 [4, 9]: ≤ 1 mg/kg
O=C1CCN2C(=C1C(=O)Nc1c(F)cccc1F)N(CCN(Cc1ccccc1)Cc1ccccc1)c1cc(F)ccc12 [Compound 63, 7-Fluoro-1,2-dihydro-5-[N,N-di(benzyl)-2-aminoethyl]-3-oxo-N-(2,6-difluorophenyl)pyrido[1,2-a]benzimidazole-4-carboxamide]	15.5				minimal effective dose [1, 5]: > 10 mg/kg
N#CCN1C2=C(C(=O)NC3CC3)C(=O)CCN2c2ccc(F)cc21 [Compound 77]	0.86	> 30	< 1	> 10	
Cc1ccc(NC(=O)C2=C3N(CCNS(=O)(=O)C(F)(F)F)c4cc(F)ccc4N3CCC2=O)s1 [Compound 35]					minimal effective dose [1, 7]: > 10 mg/kg; IC50 [3, 8]: 46.9 nM
COCCN1C2=C(C(=O)Nc3ncc(C)s3)C(=O)CCN2c2ccccc21 [Compound 98]	11			3	
O=C1CCN2C(=C1C(=O)Nc1ccccc1F)N(CC(O)CO)c1cc(F)ccc12 (centres unmarked) [Compound 162, 7-Fluoro-1,2-dihydro-5-[2,3-dihydroxypropyl]-3-oxo-N-(2-fluorophenyl)pyrido[1,2-a]benzimidazole-4-carboxamide]		≤ 30	3	> 10	minimal effective dose [1, 5]: ≤ 10 mg/kg
CC(=O)OCCN1C2=C(C(=O)Nc3ccccc3F)C(=O)CCN2c2ccc(F)cc21 [Compound 119, 7-Fluoro-1,2-dihydro-5-(2-acetoxyethyl)-3-oxo-N-(2-fluorophenyl)pyrido[1,2-a]benzimidazole-4-carboxamide]		≤ 3	< 1	3	
C[S+]([O-])CCN1C2=C(C(=O)Nc3ccccc3F)C(=O)CCN2c2ccc(F)cc21 (centres unmarked) [Compound 183, 7-Fluoro-1,2-dihydro-5-[2-(methylsulfoxy)ethyl]-3-oxo-N-(2-fluorophenyl)pyrido[1,2-a]benzimidazole-4-carboxamide]					minimal effective dose [1, 7]: 10 mg/kg; ED50 [2, 9]: ~10 mg/kg; ED50 [4, 9]: > 1 mg/kg
O=C(CN1C2=C(C(=O)Nc3c(F)cccc3F)C(=O)CCN2c2ccc(F)cc21)Nc1ccccc1F [Compound 60]	21.4	> 30	10		
O=C1CCN2C(=C1C(=O)Nc1ccccc1F)N(CCO)c1c(O)cccc12 [Compound 94, 6-Hydroxy-1,2-dihydro-5-(2-hydroxyethyl)-3-oxo-N-(2-fluorophenyl)pyrido[1,2-a]benzimidazole-4-carboxamide]	2.38			> 10	
CN=C(NCCN1C2=C(C(=O)Nc3ccccc3F)C(=O)CCN2c2ccc(F)cc21)N1CCCC1 [Compound 33]					minimal effective dose [1, 7]: > 3 mg/kg; IC50 [3, 8]: 54 nM
COCCN1C2=C(C(=O)Nc3ccccc3F)C(=O)CCN2c2c(OCc3ccccc3)cccc21 [Compound 109]	> 1000			> 10	

Further lines, with some results ahead:

IC50 [3] [nM]	SMILES	ED50 ([2]; mouse) [mg/kg]	ED50 ([4]; mouse) [mg/kg]	minimal effective dose [1, 6] [mg/kg]	also measured
6.98	CCOC(CCN1C2=C(C(=O)Nc3ccccc3F)C(=O)CCN2c2ccc(F)cc21)OCC [Compound 154]	~3	< 1	3	
2.5	CCOCN1C2=C(C(=O)Nc3ccc(OC(C)C)cc3F)C(=O)CCN2c2ccc(F)cc21 [Compound 95]			≤ 3	
0.55	CCOCN1C2=C(C(=O)Nc3ccccc3F)C(=O)CCN2c2ccc(F)c(F)c21 [Compound 103]	< 3	< 1	1	
53.5	CCOCN1C2=C(C(=O)Nc3cc4ccccc4s3)C(=O)CCN2c2ccc(F)cc21 [Compound 115]	> 30	> 1		
1.5	O=C1CCN2C(=C1C(=O)Nc1ccccc1F)N(CCOCc1ccccc1)c1cc(F)ccc12 [Compound 171, 7-Fluoro-1,2-dihydro-5-[2-(benzyloxy)ethyl]-3-oxo-N-(2-fluorophenyl)pyrido[1,2-a]benzimidazole-4-carboxamide]	1	0.1	10	minimal effective dose [1, 5]: 10 mg/kg
7.7	CS(=O)(=O)NCCN1C2=C(C(=O)Nc3ccccc3F)C(=O)CCN2c2ccc(F)cc21 [Compound 50]	< 30	1		minimal effective dose [1, 5]: > 10 mg/kg
2.49	COCCN1C2=C(C(=O)Nc3ccccc3F)C(=O)CCN2c2ccc(Cl)cc21 [Compound 147]	~5	< 1	> 10	
1.38	CCOCN1C2=C(C(=O)Nc3ccc(O)cc3F)C(=O)CCN2c2ccc(F)cc21 [Compound 99, 7-Fluoro-1,2-dihydro-5·ethoxymethyl·3-oxo-N-(2-fluoro-4-hydroxyphenyl)pyrido[1,2-a]benzimidazale-4-carboxamide]	0.3 to 3		1 to 3	minimal effective dose [1, 5]: ≤ 1 mg/kg
3.13	CCOCCN1C2=C(C(=O)Nc3ccc(Cl)s3)C(=O)CCN2c2ccc(F)cc21 [Compound 132]			> 3	
106	CCOCCN1C2=C(C(=O)Nc3cc4ccccc4s3)C(=O)CCN2c2ccc(F)cc21 [Compound 117]	> 30	≤ 1		
3.33	CCOCN1C2=C(C(=O)Nc3ccc(OCc4ccccc4)cc3F)C(=O)CCN2c2ccc(F)cc21 [Compound 92]			> 3	
0.68	CCOCN1C2=C(C(=O)Nc3ccc(C)s3)C(=O)CCN2c2ccc(F)cc21 [Compound 133]			> 3	
44.3	CCOCN1C2=C(C(=O)Nc3ccc(F)cc3F)C(=O)CCN2c2cc(F)cc(F)c21 [Compound 113]			> 10	
0.41	CCOCN1C2=C(C(=O)Nc3ccc(OC)cc3F)C(=O)CCN2c2ccc(F)cc21 [Compound 97, 7-Fluoro-1,2-dihydro-5-ethoxymethyl-3-oxo-N-(2-fluoro-4-methoxyphenyl)pyrido[1,2-a]benzimidazole-4-carboxamide]	≤ 0.3		0.03	minimal effective dose [1, 5]: ≤ 0.1 mg/kg
1.8	CCOCN1C2=C(C(=O)Nc3ccc(OCCOC)cc3F)C(=O)CCN2c2ccc(F)cc21 [Compound 93]			≤ 0.3	
13.3	CCOCN1C2=C(C(=O)Nc3ccccc3F)C(=O)CCN2c2cc(F)cc(F)c21 [Compound 112]			> 10	
